Several values for one entry are separate records, joined by “and”; a condition that tells them apart may be missing. Identical values can stand only once. Like-named read-outs stand apart in the source and are kept apart here. Where a SMILES comes first, the peptide text is derived from it.
What was measured:
[1] = biological target: HA (H1N1 hemagglutinin, Cat No.: Z03181, GenScript); details: read-out: MST KD
[2] = biological target: HA (H1N1 hemagglutinin, Cat No: Z03181, GenScript); details: read-out: SPR KD
[3] = tested on: A/Roma-ISS/02/08 H1N1 oseltamivir-sensitive virus; details: reference peptides; ref Scala et al. (2017) [14]; read-out: HI Titer (IC50) A/Roma-ISS/02/08 H1N1; cited from earlier work
[4] = tested on: A/Parma/05/06 H3N2; details: MDCK cells; ref Scala et al. (2017) [14]; cited from earlier work
[5] = tested on: A/Parma/05/06 H3N2; parameters: method as in Scala et al. (2017) [14]; details: reference peptides; ref Scala et al. (2017) [14]; read-out: HI Titer (IC50) A/Parma/05/06 H3N2; cited from earlier work
[6] = tested on: A/Roma-ISS/02/08 H1N1; details: MDCK cells; ref Scala et al. (2017) [14]; cited from earlier work
[7] = Cytotoxicity assay; assay type: cell-based, canine; details: dog, MDCK cells
Protocol: This procedure was performed as reported elsewhere. Briefly, two-fold serial dilutions of each peptide in culture medium were incubated at 37 °C with confluent MDCK cells grown in 96-well tissue culture microplates (Nalge Nunc Europe Ltd., Neerijse, Belgium). After 24 h, the following parameters were evaluated: cell morphology, which was examined by light microscopy; cell viability, which was determined by neutral red staining as already described by us; and cell proliferation, which was evaluated quantitatively by microscopic counts after dispersion into individual cells with trypsin.

[8] = tested on: A/Parma/24/09 H1N1; details: MDCK cells; ref Scala et al. (2017) [14]; cited from earlier work
[9] = tested on: A/Parma/05/06 H3N2; details: A/Parma/05/06, 1 h
[10] = tested on: A/Roma-ISS/02/08 H1N1 oseltamivir-sensitive virus; details: A/Roma-ISS/02/08 oseltamivir-sensitive virus, 1 h

CC(=O)N[C@@H](CO)C(=O)N[C@@H](CCCCN)C(=O)N[C@@H](Cc1c[nH]cn1)C(=O)N[C@@H](C)C(N)=O [Peptide 6] (Ac-SKHA-NH2)
Kd [1]: 11400 ± 170 nM
Kd [2]: 6750 ± 810 nM

CC(=O)N[C@@H](C)C(=O)N[C@@H](CC(C)C)C(=O)N[C@@H](CC(=O)O)C(=O)N[C@@H](CS)C(N)=O [Peptide 7] (Ac-ALDC-NH2)
Kd [1]: 21200 ± 410 nM
Kd [2]: 27.7 ± 1.7 nM

CC(=O)N[C@@H](CO)C(=O)N[C@@H](CCCCN)C(=O)N[C@@H](Cc1c[nH]cn1)C(=O)N[C@@H](CO)C(N)=O [Peptide 1, Ac-SKHS-NH2] (Ac-SKHS-NH2)
IC50 [3]: 0.1 nM
EC50 [4]: 0.005 nM
IC50 [5]: 12 nM
EC50 [6]: 0.003 nM
CC50 at 24 h [7]: > 25000 nM

CC(=O)N[C@@H](CO)C(=O)N[C@@H](CC(C)C)C(=O)N[C@@H](C)C(=O)N[C@@H](CS)C(N)=O [Peptide 9] (Ac-SLAC-NH2)
Kd [1]: 5.8 ± 0.3 nM
Kd [2]: 2570 ± 340 nM

CC(=O)N[C@@H](CO)C(=O)N[C@@H](CC(C)C)C(=O)N[C@@H](CC(=O)O)C(=O)N[C@@H](CS)C(N)=O [Peptide 2, Ac-SLDC-NH2] (Ac-SLDC-NH2)
EC50 [4]: 0.0043 nM
IC50 [5]: 1.5 nM
EC50 [8]: 0.0046 nM

CC(=O)N[C@@H](CO)C(=O)N[C@@H](CC(C)C)C(=O)N[C@@H](CC(=O)O)C(=O)N[C@@H](C)C(N)=O [Peptide 10] (Ac-SLDA-NH2)
Kd [1]: 2690 ± 90 nM
IC50 [9]: 0.0021 nM
Kd [2]: 343 ± 19 nM

CC(=O)N[C@@H](C)C(=O)N[C@@H](CCCCN)C(=O)N[C@@H](Cc1c[nH]cn1)C(=O)N[C@@H](CO)C(N)=O [Peptide 3] (Ac-AKHS-NH2)
Kd [1]: 3120 ± 110 nM
IC50 [10]: 0.6 nM
IC50 [9]: 12 nM
Kd [2]: 2700 ± 40 nM

CC(=O)N[C@@H](CO)C(=O)N[C@@H](CCCCN)C(=O)N[C@@H](C)C(=O)N[C@@H](CO)C(N)=O [Peptide 5] (Ac-SKAS-NH2)
Kd [1]: 7010 ± 90 nM
Kd [2]: 1030 ± 10 nM

CC(=O)N[C@@H](CO)C(=O)N[C@@H](C)C(=O)N[C@@H](CC(=O)O)C(=O)N[C@@H](CS)C(N)=O [Peptide 8] (Ac-SADC-NH2)
Kd [1]: 6380 ± 210 nM
Kd [2]: 2190 ± 510 nM

CC(=O)N[C@@H](CO)C(=O)N[C@@H](C)C(=O)N[C@@H](Cc1c[nH]cn1)C(=O)N[C@@H](CO)C(N)=O [Peptide 4, Ac-SAHS-NH2] (Ac-SAHS-NH2)
Kd [1]: 8.22 nM and 8.2 nM
CC50 at 24 h [7]: > 25000 nM
Kd [2]: 3.57 ± 0.12 nM

From PMC8537277 (Pharmaceuticals, 2021)
